Key:
AMPK = AMPK activity assay at cell level (western blot of p-AMPKα and p-ACC in MEFs); format: cell-based, mouse; details: MEF cells, compound 10 nM, 2 h; multiple of the ratio relative to positive control AICAR (3 mM); band brightness by Image J
Experimental: The ability of compounds to activate AMPK in mouse embryonic fibroblasts (MEFs) was determined, which could be specifically carried out by detecting the phosphorylation level (p-AMPKα) of threonine at the 172nd position of AMPK and the phosphorylation level (p-ACC) of serine at the 79th position of the susbtrate ACC1/ACC2 of AMPK (FIG. 1 and Table I) by western blot.
The specific method was as follows: • (1) MEFs with loxP insertion sequences or of wild-type were plated in a 6-well plate and cultured in DMEM containing 10% serum. If a gene needed to be knocked out at this time, when the density of the corresponding MEFs with loxP insertion sequences reached about 30%, an adenovirus capable of expressing cre should be added to the culture well followed by further culture for more than 24 h; • (2) When the cell density was close to 90%, the cells were provided with fresh DMEM, at the same time, a compound (final concentration 10 nM) was added to the cells, followed by culture for 2 h, with an equal volume of DMSO as the negative control, and the cells treated with the addition of AICAR (3 mM) as the positive control; • (3) After sucking up the culture solution, the cells were lysed with 200 μL of a cell lysate (its formulation was given below), then the cells were scraped from the culture dish, ultrasonicated, and subjected to low temperature centrifugation at 20000 g for 10 min; • (4) The supernatant and an equal volume of 2*SDS solution (its formulation was given below) were mixed, and subjected to SDS-PAGE in a concentration of 8%, then the protein was transferred to PVDF membrane; each PVDF membrane was blocked with 25 mL of skim milk for 1 h, and then rinsed with TBST buffer (its formulation was given below) 3 times for 10 min each time; • (5) AMPKα subunit primary antibody (Cell Signaling Technology, #2532), primary antibody of phosphothreonine at the 172nd position of AMPK (Cell Signaling Technology, #2535), ACC primary antibody (Cell Signaling Technology, #3662), or primary antibody of phosphoserine at the 79th position of ACC (Cell Signaling Technology, #3661) was diluted in a ratio of 1:1000 with a primary antibody dilution (its formulation was given below), reacted with the PVDF membrane at room temperature for 12 h, and then rinsed 3 times with TBST buffer; • (6) A 1:1000 dilution of HRP-conjugated goat anti-rabbit secondary antibody (Jackson ImmunoResearch, 111-035-003) was added, reacted at room temperature for 1 h, and then rinsed 3 times with TBST buffer; • (7) The PVDF membrane was dried, reacted in an ECL mixture (WesternBright ECL HRP substrate, Advansta) and subjected to exposure with medical X-ray, developed, finally rinsed, dried, and then scanned to obtain data related to AMPK activation.
The formulations of reagents used were: • Cell lysate: 20 mM Tris-base, pH 7.5, 150 mM NaCl, 1 mM EDTA, 1 mM EGTA, 2.5 mM Sodium pyrophosphate, 1 mM β-glycerolphosphate, 1% Triton X-100 (v/v); • 2*SDS solution: 20% Glycerol (v/v), 4% SDS (m/v), 10% β-mecaptoethanol (v/v), 0.01% Bromophenol blue (m/v); • TBST buffer: 4.84% Tris-base (m/v), 8% NaCl (m/v), 0.1% Tween-20 (v/v); • Primary antibody dilution: TBST buffer containing 5% BSA (v/v).

human hepatocytes = assay: Hepatocyte metabolism assay; format: in vitro ADME
Experimental: Experimental procedures: a test sample (concentration: 10 μM) or a positive control (concentration: 30 μM) was co-incubated with hepatic cells of various genera (cell density: 1.0×10^6 cells/mL) for 120 min under the conditions of 37° C./5% CO2/saturated humidity. The sample was centrifuged after protein precipitation by using acetonitrile solution containing 0.1% formic acid according to the proportion of 1:2, the supernatant was blown dry by nitrogen, and then redissolved by using 200 μl of a 10% acetonitrile/water (containing 0.1% formic acid) solution. 15 μL of the obtained solution was introduced each time to an LC-MS instrument system for analysis.

[1] = Liver microsome stability test, human liver microsome; format: in vitro ADME; details: microsomes, 0.5 mg protein/mL microsome, 1 μM compound, 37° C., NADPH, read-out: HLM 0.5 T1/2 (min), half life in human liver microsome
Experimental: The experimental steps were as follows: • 1. Preparation of working solution • 1.1 Intermediate solution: 5 μL of a 10 mM stock solution of sample or control was taken out, and diluted with 495 μl of methanol (Conc.: 100 μM, 99% MeOH). • 1.2 Working solution: 50 μL of the intermediate solution was taken out, and diluted with 450 μL of a 100 mM potassium phosphate buffer (Conc.: 10 μM, 9.9% MeOH). • 2. Preparation of NADPH cofactor
An appropriate amount of NADPH powder was weighed, and dissolved with a MgCl2 (10 mM) solution. • 3. Liver microsome • 3.1 Liver microsome information
• 3.2 Preparation: a microsome working solution with an appropriate concentration was prepared by using a 100 mM potassium phosphate buffer. • 4. Stop solution
Glacial acetonitrile, comprising 100 ng/ml Tolbutamide and 100 ng/ml Labetalol as internal standards. • 5. Experimental procedures • 5.1 10 μL of the working solution of sample or control was added per well to all plates (T0, T5, T10, T20, T30, T60, NCF60), except for the blank group; • 5.2 80 μL of the working solution of microsome was added per well to all plates, followed by incubation for 10 min at 37° C.; • 5.3 10 μL of a 100 mM potassium phosphate buffer was added per well to NCF60, followed by incubation at 37° C. and starting timer 1;
• 5.4 After preheating, 10 μL of NADPH was added per well to each plate, and reaction was started;
Final concentration of each component in the incubation medium:
• 5.6 300 μL of the stop solution was added per well to stop the reaction; • 5.7 The system was shaken for about 10 min; • 5.8 The samples were centrifuged (4000 rpm) at 4° C. for 20 min; • 5.9 To 8 new 96-well plates, 300 μL of HPLC water was added per well, then 100 μL of the supernatant was added, mixed and subjected to LC/MS/MS.
In the above table, HLM 0.5 T1/2 (min) refers to half life (min) of compounds in human liver microsome, DLM 0.5 T1/2 (min) refers to half life (min) of compounds in Beagle dog liver microsome.

Cc1n(CCCCCCCCCCCC(F)(F)C(F)(F)C(F)(F)C(F)(F)C(F)(F)F)cc[n+]1Cc1c(Cl)cccc1Cl.[Cl-] [IB-33]
Degree of AMPK activation, p-ACC/ACC (AMPK): 0.94 | Degree of AMPK activation, p-AMPKα/AMPK (AMPK): 0.54 | metabolic stability in human hepatocytes (in words) (human hepatocytes; human hepatocyte incubation, 120 min): relatively stable | relative content of original drug remained (human hepatocytes; human hepatocytes, after incubation for 120 min): 79% | Relative abundance (MS peak area %) (human hepatocytes; incubation of IB-33 10 μM with human hepatocytes, 120 min, parent drug and its possible metabolites): 79.31% | half-life at 1 μM [1]: > 145 min
